Measurements: paper PMC8523698, “Preclinical characterization of an intravenous coronavirus 3CL protease inhibitor for the potential treatment of COVID19” (Nature Communications, 2021)
pIC50: −log10 of the molar value. Where “and” joins values, the source holds several entries; their conditions need not be identical. Identical values can stand only once. Like-named read-outs stand apart in the source and are kept apart here.

Assays:
OCT1 = biological target: T1, OCT1 (Homo sapiens, UniProt O15245); test: Transporter inhibition using transfected HEK293 cells; format: in vitro ADME; conditions: IC50, [14C]Metformin (10 µM)
T1 construct: expressed in transfected cells; host or cells: HEK293
T1 sequence (O15245 1-554): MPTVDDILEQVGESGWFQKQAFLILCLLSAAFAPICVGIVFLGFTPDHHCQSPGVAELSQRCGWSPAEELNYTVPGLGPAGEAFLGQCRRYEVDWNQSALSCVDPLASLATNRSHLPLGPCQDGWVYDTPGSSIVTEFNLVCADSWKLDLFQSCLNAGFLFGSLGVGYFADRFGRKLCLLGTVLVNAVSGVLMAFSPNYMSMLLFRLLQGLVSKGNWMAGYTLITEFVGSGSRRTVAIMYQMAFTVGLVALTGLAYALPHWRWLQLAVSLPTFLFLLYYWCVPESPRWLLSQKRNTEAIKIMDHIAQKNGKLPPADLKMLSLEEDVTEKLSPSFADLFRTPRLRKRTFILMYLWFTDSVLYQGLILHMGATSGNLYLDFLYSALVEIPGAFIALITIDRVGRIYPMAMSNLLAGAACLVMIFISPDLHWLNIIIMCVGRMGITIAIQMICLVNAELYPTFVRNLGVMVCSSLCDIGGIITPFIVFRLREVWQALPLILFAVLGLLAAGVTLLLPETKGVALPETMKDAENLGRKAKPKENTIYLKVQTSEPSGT

CYP2C9 = CYP2C9 (Homo sapiens, UniProt P11712); test: Reversible CYP inhibition in human liver microsomes
[1] = system: SARS-CoV-2 Washington strain 1 (USA_WA1/2020); format: cell-based
[2] = Secondary/off-target pharmacology panel (Eurofins Cerep); conditions: assessed at 100 µM
hERG channel = hERG channel (Homo sapiens, UniProt Q12809); test: hERG potassium channel current assay; conditions: 300 µM vs projected Cmax at projected human efficacious dose
OATP1B3 = biological target: T2, OATP1B3 (Homo sapiens, UniProt Q9NPD5); test: Transporter inhibition using transfected HEK293 cells
T2 sequence (Q9NPD5 1-702): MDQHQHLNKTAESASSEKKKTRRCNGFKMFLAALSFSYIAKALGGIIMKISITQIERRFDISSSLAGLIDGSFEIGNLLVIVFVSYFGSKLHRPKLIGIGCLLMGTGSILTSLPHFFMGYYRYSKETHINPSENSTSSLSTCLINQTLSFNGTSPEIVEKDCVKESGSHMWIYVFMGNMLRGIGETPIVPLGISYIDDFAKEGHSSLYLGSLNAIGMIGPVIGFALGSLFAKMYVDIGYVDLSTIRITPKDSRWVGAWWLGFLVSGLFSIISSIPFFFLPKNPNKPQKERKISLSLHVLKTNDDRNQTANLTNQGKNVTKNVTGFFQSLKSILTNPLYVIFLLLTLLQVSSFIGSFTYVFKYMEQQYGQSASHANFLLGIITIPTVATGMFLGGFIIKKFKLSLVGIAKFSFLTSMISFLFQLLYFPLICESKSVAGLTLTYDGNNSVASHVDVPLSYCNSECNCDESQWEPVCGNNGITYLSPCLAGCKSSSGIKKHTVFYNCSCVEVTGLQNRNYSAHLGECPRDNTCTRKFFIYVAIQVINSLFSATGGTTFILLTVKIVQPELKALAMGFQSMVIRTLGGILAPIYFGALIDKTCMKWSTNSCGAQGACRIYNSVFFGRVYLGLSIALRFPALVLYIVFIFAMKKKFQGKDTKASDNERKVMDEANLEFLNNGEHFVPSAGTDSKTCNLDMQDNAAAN

Sequence of CYP2C9 (P11712 whole entry): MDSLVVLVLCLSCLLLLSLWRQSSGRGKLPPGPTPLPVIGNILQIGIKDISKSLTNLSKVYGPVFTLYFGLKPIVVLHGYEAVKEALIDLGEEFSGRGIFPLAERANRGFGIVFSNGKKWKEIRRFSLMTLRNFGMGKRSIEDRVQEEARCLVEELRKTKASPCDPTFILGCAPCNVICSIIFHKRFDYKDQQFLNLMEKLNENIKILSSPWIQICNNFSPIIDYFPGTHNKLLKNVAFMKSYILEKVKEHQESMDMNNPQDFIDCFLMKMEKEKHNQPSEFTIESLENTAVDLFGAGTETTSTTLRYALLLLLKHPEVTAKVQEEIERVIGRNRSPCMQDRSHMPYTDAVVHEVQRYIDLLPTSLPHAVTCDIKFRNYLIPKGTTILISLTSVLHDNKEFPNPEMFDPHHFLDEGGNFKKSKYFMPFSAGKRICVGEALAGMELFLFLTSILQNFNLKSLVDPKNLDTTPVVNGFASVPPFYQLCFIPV
Sequence of hERG channel (Q12809 whole entry): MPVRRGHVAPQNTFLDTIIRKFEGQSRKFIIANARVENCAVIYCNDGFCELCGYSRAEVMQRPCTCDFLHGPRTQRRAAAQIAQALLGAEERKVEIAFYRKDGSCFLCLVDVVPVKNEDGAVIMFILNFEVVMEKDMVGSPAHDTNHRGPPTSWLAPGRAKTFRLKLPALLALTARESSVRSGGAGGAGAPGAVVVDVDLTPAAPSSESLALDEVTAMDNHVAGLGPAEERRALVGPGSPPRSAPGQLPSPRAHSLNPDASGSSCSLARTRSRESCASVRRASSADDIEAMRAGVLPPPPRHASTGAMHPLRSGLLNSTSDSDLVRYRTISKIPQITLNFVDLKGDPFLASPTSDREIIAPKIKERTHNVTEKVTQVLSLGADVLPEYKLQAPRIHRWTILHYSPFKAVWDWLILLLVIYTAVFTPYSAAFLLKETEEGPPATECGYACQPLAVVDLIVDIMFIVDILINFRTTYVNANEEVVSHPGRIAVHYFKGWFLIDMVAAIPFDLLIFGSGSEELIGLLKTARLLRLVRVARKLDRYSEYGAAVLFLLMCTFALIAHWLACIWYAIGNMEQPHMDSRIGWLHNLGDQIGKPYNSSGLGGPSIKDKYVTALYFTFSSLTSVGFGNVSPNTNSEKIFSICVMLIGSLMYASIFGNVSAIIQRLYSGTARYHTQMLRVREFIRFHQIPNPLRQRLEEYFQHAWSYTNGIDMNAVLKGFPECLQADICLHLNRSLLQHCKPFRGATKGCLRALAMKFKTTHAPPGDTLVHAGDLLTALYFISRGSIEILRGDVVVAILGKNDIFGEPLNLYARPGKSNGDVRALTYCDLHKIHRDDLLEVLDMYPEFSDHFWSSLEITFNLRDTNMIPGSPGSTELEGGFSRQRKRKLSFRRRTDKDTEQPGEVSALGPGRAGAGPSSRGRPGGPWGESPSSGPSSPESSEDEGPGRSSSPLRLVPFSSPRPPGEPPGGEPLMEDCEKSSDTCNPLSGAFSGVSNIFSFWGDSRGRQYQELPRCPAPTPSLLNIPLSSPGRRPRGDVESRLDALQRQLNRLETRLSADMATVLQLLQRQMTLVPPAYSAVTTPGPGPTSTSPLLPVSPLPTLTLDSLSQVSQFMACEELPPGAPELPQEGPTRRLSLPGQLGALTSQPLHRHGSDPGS

COc1cccc2[nH]c(C(=O)N[C@@H](CC(C)C)C(=O)N[C@@H](C[C@@H]3CCNC3=O)C(=O)CO)cc12 [PF-00835231]
pIC50 (OCT1): 4.44
pIC50 (OCT1; human, HEK293 cells stably transfected with OCT1, pH 7.4, probe [14C]-metformin (10 µM)): < 4.70
Percent of Control Activity (CYP2C9; CYP 2C9, 0.1 µM, 30-Minute Preincubation, 0.1 µM): 101.5% and 104.7%
Percent of Control Activity (CYP2C9; CYP 2C9, 0.1 µM, Zero-Minute Preincubation, 0.1 µM): 113.8% and 92.8%
Percent of Control Activity (CYP2C9; CYP 2C9, 0.214 µM, 30-Minute Preincubation, 0.214 µM): 103.1% and 106.7%
Percent of Control Activity (CYP2C9; CYP 2C9, 0.214 µM, Zero-Minute Preincubation, 0.214 µM): 100.5% and 101.3%
Percent of Control Activity (CYP2C9; CYP 2C9, 0.979 µM, 30-Minute Preincubation, 0.979 µM): 104.6% and 107.1%
Percent of Control Activity (CYP2C9; CYP 2C9, 0.979 µM, Zero-Minute Preincubation, 0.979 µM): 107.0%
Percent of Control Activity (CYP2C9; CYP 2C9, 2.09 µM, 30-Minute Preincubation, 2.09 µM): 102.9% and 114.0%
Percent of Control Activity (CYP2C9; CYP 2C9, 2.09 µM, Zero-Minute Preincubation, 2.09 µM): 97.5%
Percent of Control Activity (CYP2C9; CYP 2C9, 4.48 µM, 30-Minute Preincubation, 4.48 µM): 102.5% and 104.2%
Percent of Control Activity (CYP2C9; CYP 2C9, 4.48 µM, Zero-Minute Preincubation, 4.48 µM): 95.3% and 94.9%
Percent of Control Activity (CYP2C9; CYP 2C9, 20.5 µM, 30-Minute Preincubation, 20.5 µM): 101.2% and 96.3%
Percent of Control Activity (CYP2C9; CYP 2C9, 20.5 µM, Zero-Minute Preincubation, 20.5 µM): 93.2%
Percent of Control Activity (CYP2C9; CYP 2C9, 43.8 µM, 30-Minute Preincubation, 43.8 µM): 91.9% and 89.1%
Percent of Control Activity (CYP2C9; CYP 2C9, 43.8 µM, Zero-Minute Preincubation, 43.8 µM): 85.3% and 88.3%
Percent of Control Activity (CYP2C9; CYP 2C9, 93.5 µM, 30-Minute Preincubation, 93.5 µM): 76.4% and 76.0%
Percent of Control Activity (CYP2C9; CYP 2C9, 93.5 µM, Zero-Minute Preincubation, 93.5 µM): 76.7% and 76.3%
Percent of Control Activity (CYP2C9; CYP 2C9, 200 µM, 30-Minute Preincubation, 200 µM): 74.9% and 59.1%
Percent of Control Activity (CYP2C9; CYP 2C9, 200 µM, Zero-Minute Preincubation, 200 µM): 71.9%
pIC50 (CYP2C9; human, microsomes, pH 7.4): < 3.70
activity at 0.1 µM (CYP2C9; human, microsomes, pH 7.4, Percent of Control Activity, CYP 2C9, 0.1 µM, 30-Minute Preincubation): 108%
activity at 0.214 µM (CYP2C9; human, microsomes, pH 7.4, Percent of Control Activity, CYP 2C9, 0.214 µM, 30-Minute Preincubation): 102%
activity at 0.214 µM (CYP2C9; human, microsomes, pH 7.4, Percent of Control Activity, CYP 2C9, 0.214 µM, Zero-Minute Preincubation): 102%
activity at 0.979 µM (CYP2C9; human, microsomes, pH 7.4, Percent of Control Activity, CYP 2C9, 0.979 µM, 30-Minute Preincubation): 103%
activity at 0.979 µM (CYP2C9; human, microsomes, pH 7.4, Percent of Control Activity, CYP 2C9, 0.979 µM, Zero-Minute Preincubation): 99.1%
activity at 2.09 µM (CYP2C9; human, microsomes, pH 7.4, Percent of Control Activity, CYP 2C9, 2.09 µM, 30-Minute Preincubation): 99.5%
activity at 2.09 µM (CYP2C9; human, microsomes, pH 7.4, Percent of Control Activity, CYP 2C9, 2.09 µM, Zero-Minute Preincubation): 110%
activity at 4.48 µM (CYP2C9; human, microsomes, pH 7.4, Percent of Control Activity, CYP 2C9, 4.48 µM, 30-Minute Preincubation): 102%
activity at 4.48 µM (CYP2C9; human, microsomes, pH 7.4, Percent of Control Activity, CYP 2C9, 4.48 µM, Zero-Minute Preincubation): 98.5%
activity at 20.5 µM (CYP2C9; human, microsomes, pH 7.4, Percent of Control Activity, CYP 2C9, 20.5 µM, 30-Minute Preincubation): 96.7%
activity at 20.5 µM (CYP2C9; human, microsomes, pH 7.4, Percent of Control Activity, CYP 2C9, 20.5 µM, Zero-Minute Preincubation): 104%
activity at 43.8 µM (CYP2C9; human, microsomes, pH 7.4, Percent of Control Activity, CYP 2C9, 43.8 µM, 30-Minute Preincubation): 101%
activity at 43.8 µM (CYP2C9; human, microsomes, pH 7.4, Percent of Control Activity, CYP 2C9, 43.8 µM, Zero-Minute Preincubation): 85.2%
activity at 93.5 µM (CYP2C9; human, microsomes, pH 7.4, Percent of Control Activity, CYP 2C9, 93.5 µM, 30-Minute Preincubation): 92%
activity at 93.5 µM (CYP2C9; human, microsomes, pH 7.4, Percent of Control Activity, CYP 2C9, 93.5 µM, Zero-Minute Preincubation): 92.6%
activity at 200 µM (CYP2C9; human, microsomes, pH 7.4, Percent of Control Activity, CYP 2C9, 200 µM, 30-Minute Preincubation): 77.1%
activity at 200 µM (CYP2C9; human, microsomes, pH 7.4, Percent of Control Activity, CYP 2C9, 200 µM, Zero-Minute Preincubation): 74.3%
hill coefficient (m) [1]: 3
secondary (off-target) pharmacology [2]: minimal potential for secondary (off-target) pharmacology
hERG margin in reference to projected unbound human Cmax (hERG channel): 600 fold
pIC50 (OATP1B3): 4.29
pIC50 (OATP1B3; human, HEK293 cells stably transfected with OATP1B3, pH 7.4, probe rosuvastatin (0.5 µM)): < 4.70
